Test results from ChEMBL document CHEMBL1201862, “PubChem BioAssay data set” (2004).
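In this assay, cells in 96-well plates receive the compound at five concentrations for 48 hours. Endpoints are linearly interpolated between the surrounding concentrations. At the GI50, growth is halved.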 Active and inactive are the calls of the source. No stated cut-off is given here; in the data, active = GI50 up to about 1.1 µM and inactive = higher.

Experiments:
Assay in all cases: NCI tumour cell line growth inhibition, 48 h
SF-295 = system: SF-295
K562 = system: K562
ACHN = system: ACHN
MDA-MB-435 = system: MDA-MB-435
RXF 393 = system: RXF 393
M14 = system: M14
NCI/ADR-RES = system: NCI/ADR-RES
SK-MEL-2 = system: SK-MEL-2
KM12 = system: KM12
DU-145 = system: DU-145
HOP-92 = system: HOP-92
CAKI-1 = system: CAKI-1
MCF7 = system: MCF7
SR = system: SR
A498 = system: A498
SK-MEL-5 = system: SK-MEL-5
OVCAR-3 = system: OVCAR-3
UO-31 = system: UO-31
SN12C = system: SN12C
SNB-75 = system: SNB-75

Row | SMILES | GI50 (SF-295) | GI50 (K562) | GI50 (ACHN) | GI50 (MDA-MB-435) | GI50 (RXF 393) | GI50 (M14) | GI50 (NCI/ADR-RES) | GI50 (SK-MEL-2) | GI50 (KM12) | GI50 (DU-145) | GI50 (HOP-92) | GI50 (CAKI-1) | GI50 (MCF7) | GI50 (SR) | GI50 (A498) | GI50 (SK-MEL-5) | GI50 (OVCAR-3) | GI50 (UO-31) | GI50 (SN12C) | GI50 (SNB-75)
1 | c1ccc(C(=NCCC2CNc3ccccc32)c2ccccc2)cc1 (configuration not stated) | > 100 µM (inactive) | > 100 µM (inactive) | > 100 µM (inactive) | > 100 µM (inactive) | > 100 µM (inactive) | > 100 µM (inactive) | > 100 µM (inactive) | > 100 µM (inactive) | > 100 µM (inactive) | > 100 µM (inactive) | > 100 µM (inactive) | > 100 µM (inactive) | > 100 µM (inactive) | > 100 µM (inactive) | > 100 µM (inactive) | > 100 µM (inactive) | > 100 µM (inactive) | > 100 µM (inactive) | – | –
2 | COc1ccc(C2(C3c4cc(OC)c(OC)cc4CCN3C)SCCCS2)cc1O (configuration not stated) | 71.8 µM (inactive) | 95.1 µM (inactive) | – | > 100 µM (inactive) | > 100 µM (inactive) | > 100 µM (inactive) | 94 µM (inactive) | > 100 µM (inactive) | 71.8 µM (inactive) | > 100 µM (inactive) | 76.2 µM (inactive) | > 100 µM (inactive) | > 100 µM (inactive) | 68.1 µM (inactive) | > 100 µM (inactive) | > 100 µM (inactive) | > 100 µM (inactive) | > 100 µM (inactive) | > 100 µM (inactive) | –
3 | Cn1c(=O)c(-c2ccccc2)c(O)c2ccccc21 | > 100 µM (inactive) | > 100 µM (inactive) | > 100 µM (inactive) | > 100 µM (inactive) | > 100 µM (inactive) | – | > 100 µM (inactive) | – | > 100 µM (inactive) | > 100 µM (inactive) | > 100 µM (inactive) | > 100 µM (inactive) | > 100 µM (inactive) | 42.5 µM (inactive) | > 100 µM (inactive) | > 100 µM (inactive) | > 100 µM (inactive) | > 100 µM (inactive) | > 100 µM (inactive) | 0.92 µM (active)
4 | CN1CCC(CNC(=O)CCCCCCCCC(=O)NCC2(c3ccccc3)CCN(C)CC2)(c2ccccc2)CC1 | > 100 µM (inactive) | 77.1 µM (inactive) | > 100 µM (inactive) | > 100 µM (inactive) | > 100 µM (inactive) | 57.3 µM (inactive) | > 100 µM (inactive) | > 100 µM (inactive) | > 100 µM (inactive) | > 100 µM (inactive) | – | – | > 100 µM (inactive) | > 100 µM (inactive) | > 100 µM (inactive) | > 100 µM (inactive) | > 100 µM (inactive) | > 100 µM (inactive) | > 100 µM (inactive) | 44.2 µM (inactive)
5 | C/C(=N/NC(=S)Nc1ccccc1C)c1ccccn1 | 0.175 µM (active) | < 0.0145 µM (active) | 0.0562 µM (active) | 0.632 µM (active) | 0.682 µM (active) | < 0.0258 µM (active) | 0.0322 µM (active) | 2.65 µM (inactive) | 0.173 µM (active) | 1.63 µM (inactive) | 1.09 µM (active) | – | 0.0164 µM (active) | 0.0229 µM (active) | 1.67 µM (inactive) | 0.0766 µM (active) | 0.0144 µM (active) | 0.43 µM (active) | 0.269 µM (active) | 0.583 µM (active)
6 | C=CCOC(=O)c1c(C)[n+]([O-])c2cc(Cl)c(Cl)cc2[n+]1[O-] | 32.6 µM (inactive) | 27.9 µM (inactive) | 23.6 µM (inactive) | 19.8 µM (inactive) | – | 18.2 µM (inactive) | 20.6 µM (inactive) | 13.6 µM (inactive) | 29.7 µM (inactive) | 29.6 µM (inactive) | 13.7 µM (inactive) | 19.2 µM (inactive) | 20.5 µM (inactive) | 4.54 µM (inactive) | 27.5 µM (inactive) | 19 µM (inactive) | 20.1 µM (inactive) | 23.3 µM (inactive) | 24.3 µM (inactive) | –
7 | Cc1cc2ncn(C3CCCO3)c2cc1C (configuration not stated) | > 100 µM (inactive) | > 100 µM (inactive) | > 100 µM (inactive) | > 100 µM (inactive) | > 100 µM (inactive) | > 100 µM (inactive) | > 100 µM (inactive) | > 100 µM (inactive) | 74.5 µM (inactive) | > 100 µM (inactive) | > 100 µM (inactive) | > 100 µM (inactive) | > 100 µM (inactive) | > 100 µM (inactive) | – | > 100 µM (inactive) | > 100 µM (inactive) | 28.3 µM (inactive) | > 100 µM (inactive) | 71.6 µM (inactive)
8 | COC(=O)C1(NC(=O)C(Cc2ccccc2)N(C(=O)OC(C)(C)C)C(=O)OC(C)(C)C)CCCC1 (configuration not stated) | – | 43 µM (inactive) | > 10 µM (inactive) | 83.9 µM (inactive) | – | > 100 µM (inactive) | 22.3 µM (inactive) | > 100 µM (inactive) | – | > 100 µM (inactive) | 59.2 µM (inactive) | – | 27.5 µM (inactive) | > 10 µM (inactive) | 25.8 µM (inactive) | > 100 µM (inactive) | – | 64 µM (inactive) | > 100 µM (inactive) | > 100 µM (inactive)
9 | Cn1c(=O)oc2cc(C(=S)N3CCCCC3)ccc21 | > 100 µM (inactive) | > 100 µM (inactive) | > 100 µM (inactive) | > 100 µM (inactive) | > 100 µM (inactive) | > 100 µM (inactive) | > 100 µM (inactive) | > 100 µM (inactive) | > 100 µM (inactive) | > 100 µM (inactive) | – | > 100 µM (inactive) | > 100 µM (inactive) | 68.4 µM (inactive) | > 100 µM (inactive) | > 100 µM (inactive) | > 100 µM (inactive) | – | > 100 µM (inactive) | > 100 µM (inactive)
10 | C[C@]12CC[C@H](O)CC1=CC[C@@H]1[C@@H]2CC[C@]2(C)NC(=O)/C(=C\c3ccccc3)C[C@@H]12 | 16.5 µM (inactive) | 39.6 µM (inactive) | 17.4 µM (inactive) | 18.3 µM (inactive) | 13.5 µM (inactive) | 15.8 µM (inactive) | 18.5 µM (inactive) | 12.6 µM (inactive) | 14.5 µM (inactive) | 16.4 µM (inactive) | – | 25.2 µM (inactive) | 14.4 µM (inactive) | 28.7 µM (inactive) | 15.2 µM (inactive) | 12.9 µM (inactive) | 11.9 µM (inactive) | 12.9 µM (inactive) | 23 µM (inactive) | 19.6 µM (inactive)
11 | CC(NC(CC12CC3CC(CC(C3)C1)C2)C(N)=O)c1ccccc1 (configuration not stated) | 13 µM (inactive) | 17.5 µM (inactive) | 20.9 µM (inactive) | 16.7 µM (inactive) | – | 21.1 µM (inactive) | 17.8 µM (inactive) | – | – | 24.7 µM (inactive) | – | 23.3 µM (inactive) | 35 µM (inactive) | 17.4 µM (inactive) | 14.6 µM (inactive) | 13.4 µM (inactive) | 13.2 µM (inactive) | 19.2 µM (inactive) | – | –
12 | COC1OC(CO)C(O)C(OC(=O)c2cc(O)c(O)c(O)c2)C1OC(=O)c1cc(O)c(O)c(O)c1 (configuration not stated) | 20.2 µM (inactive) | 35.6 µM (inactive) | 58.2 µM (inactive) | 33.4 µM (inactive) | > 100 µM (inactive) | 45.4 µM (inactive) | 60.4 µM (inactive) | > 100 µM (inactive) | > 100 µM (inactive) | > 100 µM (inactive) | – | 48.3 µM (inactive) | > 100 µM (inactive) | 53.7 µM (inactive) | – | 36.7 µM (inactive) | > 100 µM (inactive) | > 100 µM (inactive) | 61.9 µM (inactive) | > 100 µM (inactive)
13 | COc1ccc2c(C)cc(N/N=C/c3ccc(OC)c4ccccc34)nc2c1 | 16.8 µM (inactive) | 10.1 µM (inactive) | 4.48 µM (inactive) | 11.2 µM (inactive) | 16.7 µM (inactive) | 17.1 µM (inactive) | 14.4 µM (inactive) | 19.2 µM (inactive) | 13.2 µM (inactive) | 4.36 µM (inactive) | 11.2 µM (inactive) | 13.4 µM (inactive) | 19.4 µM (inactive) | 4.17 µM (inactive) | – | 16.4 µM (inactive) | 2.96 µM (inactive) | 12.6 µM (inactive) | 2.13 µM (inactive) | 22.9 µM (inactive)
14 | COc1cc(/C=C/C(=O)OCC23CC[C@@]4(C(=O)O)CCC(C)[C@H](C)C4C2=CCC2[C@@]4(C)CC[C@H](O)C(C)(C)C4CC[C@]23C)ccc1O (some centres not stated) | 23.8 µM (inactive) | 27 µM (inactive) | 3.05 µM (inactive) | 24.5 µM (inactive) | 12.7 µM (inactive) | 23.2 µM (inactive) | 15.6 µM (inactive) | 22.5 µM (inactive) | 29.9 µM (inactive) | 10.2 µM (inactive) | – | 44.4 µM (inactive) | 10.7 µM (inactive) | 19.4 µM (inactive) | 32.4 µM (inactive) | 16.1 µM (inactive) | 3.88 µM (inactive) | – | 8.09 µM (inactive) | –
15 | COc1ccc(N2C(=O)C3c4[nH]c5ccccc5c4C4CCCCCCCC4C3C2=O)cc1 (configuration not stated) | > 10 µM (inactive) | > 10 µM (inactive) | > 10 µM (inactive) | > 10 µM (inactive) | > 10 µM (inactive) | > 10 µM (inactive) | > 10 µM (inactive) | > 10 µM (inactive) | > 10 µM (inactive) | > 10 µM (inactive) | – | > 10 µM (inactive) | > 10 µM (inactive) | > 10 µM (inactive) | > 10 µM (inactive) | > 10 µM (inactive) | > 10 µM (inactive) | > 10 µM (inactive) | > 10 µM (inactive) | 5.22 µM (inactive)
